Source: patent publication US8410141B2, “Insecticidal arylpyrrolines” (Bayer Cropscience AG, priority 2009, dated 2013)

Columns and labels:
Format in all cases: in vivo
Ctenocephalides felis = Ctenocephalides felis test (CTECFE); settings: for mortality: 100 ppm in cattle blood, adult unfed fleas, after 2 days
Protocol: (§1) Solvent: dimethyl sulfoxide
To produce a suitable preparation of active compound, 10 mg of active compound are dissolved in 0.5 ml solvent, and the concentrate is diluted with cattle blood to the desired concentration. Approximately 20 adult unfed (Ctenocepahlides felis) are placed in flea chambers. The blood chamber, sealed with parafilm on the bottom, are filled with cattle blood supplied with compound solution and placed on top of the flea chamber, so that the fleas are able to suck the blood. The blood chamber is heated to 37° C. whereas the flea chamber is kept at room temperature. After 2 days mortality in % is determined. 100% means that all the fleas have been killed; 0% means that none of the fleas have been killed.

[1] = system: Cucurbit Leaf Beetle (Aulacophora femoralis); assay: Test against cucurbit leaf beetle (Aulacophora femoralis), leaf immersion; settings: 100 ppm; cucumber leaves immersed; second-instar larvae; after 7 days
Protocol: (§2) Unless not mentioned otherwise, the test solutions were prepared as follows:
(§3) Containing as solvent: Dimethylformamide, 3 parts by weight; and as emulsifier: Polyoxyethylene alkyl phenyl ether, 1 part by weight. To prepare the test solution, 1 part by weight of an active compound is mixed with the above-mentioned amount of solvent containing the above-mentioned amount of emulsifier, and the mixture is diluted with water to the desired concentration.
Cucumber leaves were immersed in the test solution at the appropriate concentration, and the leaves were dried in air. The leaves were then placed in a plastic cup containing sterilized black soil, and five second-instar larvae of cucurbit leaf beetle were released therein. The plastic cup was placed in a temperature-controlled chamber at 25° C. After 7 days, the number of dead larvae was counted, and thus the insecticidal activity was calculated. An insecticidal activity of 100% means that all beetles were killed, whereas an insecticidal activity of 0% means that no beetle was killed.

[2] = system: Two-Spotted Spider Mite (Tetranychus urticae); assay: Test against two-spotted spider mite (Tetranychus urticae), spray; settings: 100 ppm; sprayed on kidney bean; adult mites; after 7 days
Protocol: as §2, §3
50 to 100 adult two-spotted spider mites were inoculated onto the leaves of kidney beans at the two-true leaf stage, which plant had been cultivated in a pot having a diameter of 6 cm. After one day, test solution at the appropriate concentration was sprayed thereon in a sufficient amount using a spray gun. After the spraying, the plant pot was placed inside a greenhouse, and after 7 days, the acaricidal activity was calculated. An acaricidal activity of 100% means that all mites were killed, whereas an acaricidal activity of 0% means that no mite was killed.

[3] = system: Tobacco Cutworm (Spodoptera litura) Larvae; assay: Test against tobacco cutworm larvae, systemic test by soil drench; settings: 250 ppm, 20 ml soil drench on potted broccoli, leaves cut after 7 days, third-instar larvae
Protocol: as §2, §3
20 ml of the test solution at the appropriate concentration was treated on the soil surface of potted broccoli seedling at 2 to 3 leaf stage. After 7 days, the leaves were cut and placed in a petri dish having a diameter of 9 cm. And then ten third-instar larvae of tobacco cutworm were released therein. The petri dish was placed in a temperature-controlled room at 25° C. After 7 days, the number of dead larvae was counted to calculate the insecticidal activity. An insecticidal activity of 100% means that all larvae were killed, whereas an insecticidal activity of 0% means that no larva was killed. […] The comparative compound A is No. 1-72 in WO2009/097992.

[4] = system: Tobacco Cutworm (Spodoptera litura) Larvae; assay: Test against tobacco cutworm larvae, root systemicity; settings: 100 ppm; broccoli seedling roots dipped 3 days; second-instar larvae; after 4 days
Protocol: as §2, §3
The roots of seedling of broccoli at 1.2 leaf stage were dipped into the test solution at the appropriate concentration. After 3 days, the leaves were cut and placed in a petri dish having a diameter of 9 cm. And then five second-instar larvae of tobacco cutworm were released therein. The petri dish was placed in a temperature-controlled room at 25° C. After 4 days, the number of dead larvae was counted, to calculate the insecticidal activity. An insecticidal activity of 100% means that all larvae were killed, whereas an insecticidal activity of 0% means that no larva was killed.

[5] = system: Rice Leafroller (Cnaphalocrocis medinalis) Larvae; assay: Test against rice leafroller larvae, seed treatment; settings: 8 g/1 kg dry seeds, leaves cut 28 days after seeding, third-instar larvae, after 7 days
Protocol: To prepare the test solution, 1 part by weight of an active compound is mixed with the 8 parts of acetone, and mix with 20 mg of micronized mineral. After that 1 g of dry rice seeds and 50 ul of water are added and mixed well and dried in the air. Sow treated seeds in the pot having a diameter of 12 cm. 28 days after seeding the leaves were cut and placed in a petri dish having a diameter of 9 cm. And then five third-instar larvae of rice leafroller were released therein. The petri dish was placed in a temperature-controlled room at 25° C. After 7 days, the number of dead larvae was counted to calculate the insecticidal activity. An insecticidal activity of 100% means that all larvae were killed, whereas an insecticidal activity of 0% means that no larva was killed. […] The comparative compound B is No. 1-79 in WO2009/097992.

[6] = system: Tobacco Cutworm (Spodoptera litura) Larvae; assay: Test against tobacco cutworm (Spodoptera litura) larvae, leaf immersion; settings: 100 ppm; sweet potato leaves immersed; third-instar larvae; after 7 days
Protocol: as §2, §3
The leaves of sweet potato were immersed in the test solution at the appropriate concentration, and the leaves were dried in air. The leaves were then placed in a petri dish having a diameter of 9 cm, and ten third-instar larvae of tobacco cutworm were released therein. The petri dish was placed in a temperature-controlled chamber at 25° C. After 2 days and 4 days sweet potato leaves were additionally added. After 7 days, the number of dead larvae was counted to calculate the insecticidal activity. An insecticidal activity of 100% means that all larvae were killed, whereas an insecticidal activity of 0% means that no larva was killed. In the current test, the results of two petri dishes for each partition were averaged.

[7] = system: adult engorged female Boophilus microplus ticks; assay: Boophilus microplus (dip); settings: for mortality: 100 ppm, ticks immersed one minute, after 7 days
Protocol: Solvent: Dimethylsulfoxid
To produce a suitable preparation of active compound, 10 mg of active compound are dissolved in 0.5 ml solvent, and the concentrate is diluted with water to the desired concentration. Eight to ten adult engorged female Boophilus microplus ticks are placed in perforated plastic beakers and immersed in aqueous compound solution for one minute. Ticks are transferred to a filter paper in a plastic tray. Egg deposition of fertile eggs is monitored after. After 7 days mortality in % is determined. 100% means that all the ticks have been killed; 0% means that none of the ticks have been killed.

Musca domestica = Musca domestica test; settings: for mortality: 100 ppm, sponge with sugar and compound solution, adults, after 2 days
Protocol: as §1
To produce a suitable preparation of active compound, 10 mg of active compound are dissolved in 0.5 ml solvent, and the concentrate is diluted with water to the desired concentration. Prior to the assay, a piece of kitchen sponge is soaked with a mixture of sugar and compound solution and placed into a container. 10 adults (Musca domestica) are placed into the container and closed with a perforated lid. After 2 days mortality in % is determined. 100% means that all the flies have been killed; 0% means that none of the flies have been killed.

[8] = system: Nymphs of the tick Amblyomma hebraeum; assay: Amblyomma hebraeum test (AMBYHE); settings: 100 ppm; nymphs immersed one minute; after 42 days
Protocol: as §1
To produce a suitable preparation of active compound, 10 mg of active compound are dissolved in 0.5 ml solvent, and the concentrate is diluted with water to the desired concentration. Nymphs of the tick Amblyomma hebraeum are placed in perforated plastic beakers and immersed in aqueous compound solution for one minute. Ticks are transferred to a filter paper in a petri dish and incubated in a climate chamber for 42 days.
After 42 days mortality in % is determined. 100% means that all the ticks have been killed; 0% means that none of the ticks have been killed.

[9] = system: Lucilia cuprina 1st instar larvae; assay: Lucilia cuprina (48 h)
Protocol: Species: Lucilia cuprina 1st instar larvae (age 24 hrs)
as §1
10 mg active compound are dissolved in 0.5 ml dimethyl sulfoxide. Serial dilutions are made to obtain the desired rates. Approximately 20 Lucilia cuprina 1st instar larvae are transferred into a test tube containing 1 cm^3 of minced horse meat and 0.5 ml aqueous dilution of test compound. After 48 hrs percentage of larval mortality are recorded. 100% efficacy=all larvae are killed, […].

`N#Cc1cc(C2=NCC(c3cncc(Cl)c3)(C(F)(F)F)C2)ccc1-n1cncn1` (stereo not drawn) [1-480] showed a mortality (Ctenocephalides felis) of 90%, an insecticidal activity [1] of 100% and an acaricidal activity rate [2] of 100%.
For `N#Cc1cc(C2=NCC(c3cc(C(F)(F)F)nc(C(F)(F)F)c3)(C(F)(F)F)C2)ccc1-n1cncn1` (stereo not drawn) [1-22], the insecticidal activity [3] was 100%, the insecticidal activity [4] was 100% and the insecticidal activity [5] was 100%. It also gave an insecticidal activity [6] of 100%, an insecticidal activity [1] of 100% and an acaricidal activity rate [2] of 100%.
For `N#Cc1cc(C2=NCC(c3cc(Cl)c(Cl)c(Cl)c3)(C(F)(F)F)C2)cnc1-n1cncn1` (stereo not drawn) [1-52], the mortality [7] was 90%, the insecticidal activity [6] was 100% and the insecticidal activity [1] was 100%. For the same compound, the acaricidal activity rate [2] was 100%.
`FC(F)(F)C1(c2cc(Cl)nc(Cl)c2)CN=C(c2ccc(-n3cncn3)cc2)C1` (stereo not drawn) [1-2] gave a mortality (Musca domestica) of 90%, an insecticidal activity [4] of 100% and an insecticidal activity [6] of 100%. For the same compound, the insecticidal activity [1] was 100% and the acaricidal activity rate [2] was 100%.
For `N#Cc1cc(C2=NCC(c3cccc(OC(F)F)c3)(C(F)(F)F)C2)ccc1-n1cncn1` (stereo not drawn) [1-483], the mortality (Ctenocephalides felis) was 90%, the insecticidal activity [1] was 100% and the acaricidal activity rate [2] was 100%.
`N#Cc1cc(C2=NCC(c3cc(Cl)nc(Cl)c3)(C(F)(F)F)C2)cnc1-n1cncn1` (stereo not drawn) [1-66] showed a mortality (Musca domestica) of 80%, an insecticidal activity [4] of 100% and an insecticidal activity [6] of 100%. For the same compound, the insecticidal activity [1] was 100%.
`Fc1cc(C2=NCC(c3cc(Cl)c(Cl)c(Cl)c3)(C(F)(F)F)C2)ccc1-n1cncn1` (stereo not drawn) [1-29] showed a mortality [7] of 95%, an insecticidal activity [6] of 100% and an insecticidal activity [1] of 100%.
With `N#Cc1cc(C2=NCC(c3cc(Cl)c(F)c(Cl)c3F)(C(F)(F)F)C2)ccc1-n1cncn1` (stereo not drawn) [1-20] the insecticidal activity [4] was 100%, the insecticidal activity [6] was 100% and the insecticidal activity [1] was 100%. The acaricidal activity rate [2] was 100% and the mortality [8] was 100%.
`N#Cc1cc(C2=NCC(c3cc(OC(F)F)cc(OC(F)F)c3)(C(F)(F)F)C2)ccc1-n1cncn1` (stereo not drawn) [1-485] showed a mortality [7] of 90%, an insecticidal activity [4] of 100% and an insecticidal activity [6] of 100%. For the same compound, the insecticidal activity [1] was 100% and the acaricidal activity rate [2] was 100%.
In the case of `N#Cc1cc(C2=NCC(c3cc(Cl)c(F)c(Cl)c3)(C(F)(F)F)C2)ccc1-n1cncn1` (stereo not drawn) [1-13], the insecticidal activity [4] is reported as 100%, the insecticidal activity [6] is reported as 100% and the insecticidal activity [1] is reported as 100%. The acaricidal activity rate [2] was 100% and the mortality [8] was 100%.
Work on `N#Cc1cc(C2=NCC(c3cc(Cl)nc(Cl)c3)(C(F)(F)F)C2)ccc1-n1cncn1` (stereo not drawn) [1-1, 5-[3-(2,6-dichloropyridin-4-yl)-3-(trifluoromethyl)-3,4-dihydro-2H-pyrrol-5-yl]-2-(1H-1,2,4-triazol-1-yl)benzonitrile] yielded a mortality at 100 ppm ([9]; Lucilia cuprina, 48 h, read-out: larval mortality) of 100%, a mortality at 100 ppm ([7]; Rhipicephalus microplus, 168 h) of 100% and a mortality at 100 ppm (Ctenocephalides felis; Ctenocephalides felis, 48 h) of 100%. It also gave a mortality at 100 ppm (Musca domestica; Musca domestica, 48 h) of 100%, an insecticidal activity [3] of 100% and an insecticidal activity [4] of 100%. For the same compound, the insecticidal activity [5] was 100%, the insecticidal activity [6] was 100% and the insecticidal activity [1] was 100%. For the same compound, the acaricidal activity rate [2] was 100%.
Work on `N#Cc1cc(C2=NCC(c3ccnc(C(F)(F)F)c3)(C(F)(F)F)C2)ccc1-n1cncn1` (stereo not drawn) [1-21] yielded a mortality (Musca domestica) of 80%, an insecticidal activity [3] of 100% and an insecticidal activity [4] of 100%. For the same compound, the insecticidal activity [6] was 100%, the insecticidal activity [1] was 100% and the acaricidal activity rate [2] was 100%.
`N#Cc1cc(C2=NCC(c3cc(Cl)c([N+](=O)[O-])c(Cl)c3)(C(F)(F)F)C2)ccc1-n1cncn1` (stereo not drawn) [1-489] was tested, and the mortality [7] was 80%, the mortality (Musca domestica) was 80% and the insecticidal activity [6] was 100%.
For `N#Cc1cc(C2=NCC(c3cccc(C(F)(F)F)n3)(C(F)(F)F)C2)ccc1-n1cncn1` (stereo not drawn) [1-126], the mortality (Ctenocephalides felis) was 90%, the mortality (Musca domestica) was 90% and the insecticidal activity [4] was 100%. For the same compound, the insecticidal activity [6] was 100% and the insecticidal activity [1] was 100%.
`N#Cc1cc(C2=NCC(c3cc(Cl)cc(C(F)(F)F)c3)(C(F)(F)F)C2)ccc1-n1cncn1` (stereo not drawn) [1-10] was tested, and the insecticidal activity [4] was 100%, the insecticidal activity [6] was 100% and the insecticidal activity [1] was 100%. For the same compound, the acaricidal activity rate [2] was 100% and the mortality [8] was 100%.
For `FC(F)(F)C1(c2cc(Cl)c(Cl)c(Cl)c2)CN=C(c2ccc(-n3cncn3)c(Cl)c2)C1` (stereo not drawn) [1-30], the mortality (Ctenocephalides felis) was 90%, the insecticidal activity [6] was 100% and the insecticidal activity [1] was 100%. The acaricidal activity rate [2] was 100%.
`N#Cc1cc(C2=NCC(c3cc(Cl)c4c(c3)OC(F)(F)O4)(C(F)(F)F)C2)ccc1-n1cncn1` (stereo not drawn) [1-25] was tested, and the larval mortality ([9]; 100 ppm, minced horse meat, after 48 hrs) was 90%, the mortality (Musca domestica) was 90% and the insecticidal activity [4] was 100%. It also gave an insecticidal activity [6] of 100% and an insecticidal activity [1] of 100%.
